One data set relates to Mtb. As to conditions: mouse pulmonary TB model; cited from earlier work.
Data set [1] relates to Mycobacterium tuberculosis CDC1551. Type of data set: in vivo. The following applies: B6D2F1 mice, 50 mg/kg daily.
A further data set concerns lung granulomas. The data set can be described thus: Histology and morphometric measurement of lung granulomas in Mtb-infected mice. Type of data set: in vivo. Here is the method: Formalin-fixed lung tissues of Mtb-infected mice were paraffin-embedded, cut into […] sections, and stained with hematoxylin and eosin (H&E) or acid fast staining by Ziehl–Neelsen (ZN) method to visualize host cells and Mtb, respectively (IDEXX-RADIL Laboratories Inc., MO, USA) as described in Ref. ([11]). Stained sections were photographed in a Nikon Microphot-FX photomicrographic system and analyzed with NIS-Elements F3.0 software (Nikon Instruments Inc., NY, USA). Lung granuloma size was morphometrically measured using PathScan Enabler IV scanner (Meyer Instruments, Houston, TX, USA) and SigmaScan Pro software (Systat Software, Inc., CA, USA). Histopathologic analysis and morphometry were performed by an experienced pathologist blinded to the sample identity.

Here are results for 3 compounds from article PMC4911353, “Pharmacologic Inhibition of Host Phosphodiesterase-4 Improves Isoniazid-Mediated Clearance of Mycobacterium tuberculosis” (Frontiers in Immunology, 2016).

With `COc1ccc([C@]2(C#N)CC[C@@H](C(=O)O)CC2)cc1OC1CCCC1` [cilomilast], in the data set on Mtb, the “Impact on antibiotic-mediated bacillary clearance” value is on record as “no impact”.

`NNC(=O)c1ccncc1` [INH, isoniazid]: the “Change in lung CFUs from 84 to 112 days postinfection” value in data set [1] is “no significant decline”. The “Lesion area (granuloma size) versus untreated mice” value in the data set with lung granulomas (28 days postinfection) was “significant differences”. The “Granuloma size versus untreated group” value with lung granulomas (112 days postinfection) is “significant reduction”.

Consider `COc1ccc(C2CNC(=O)C2)cc1OC1CCCC1` (centres unmarked) [rolipram], for which the “Impact on antibiotic-mediated bacillary clearance” value in the data set on Mtb is given as “no impact”.
